Patent US10881110B2, “Herbicidal compositions comprising isoxazolo[5,4-b]pyridines” (BASF SE, priority 2014, dated 2021)

Key:
Experiment in all cases: greenhouse post-emergence herbicidal test
POLCO = format: in vivo, Polygonum convolvulus; parameters: key to herbicidal activity against POLCO found: rating on a scale from 0 to 100; conditions: post emergence
Protocol: (§1) The culture containers used were plastic pots containing medium loamy sand with approximately 4.6% of humus and 69.9% sand as substrate. The seeds of the test plants were sown separately for each species.
(§2) For the post-emergence treatment, the test plants were grown to a plant height of from 1 to 15 cm, depending on the plant habit, and only then treated with the active compounds which had been suspended or emulsified in water. To this end, the test plants were either sown directly, and grown in the same containers, or they were first grown separately as seedlings and transplanted into the test containers a few days prior to treatment.
(§3) Depending on the species, the plants were kept at 10-25° C. and 20-35° C., respectively.
(§4) The test period extended over 1 to 3 weeks. During this time, the plants were tended and their response to the individual treatments was evaluated 20 days after treatment except mentioned otherwise.
(§5) Evaluation was carried out using a scale from 0 to 100. 100 means no emergence of the plants, or complete destruction of at least the above-ground parts, and 0 means no damage or normal course of growth.
(§6) The respective stated components A and B, and, if appropriate, C, were formulated as a 10% by weight strength emulsion concentrate and, with addition of the amount of solvent system, introduced into the spray liquor used for applying the active compound. In the examples, the solvent used was water.
(§7) In the examples below, using the method of S. R. Colby (1967) “Calculating synergistic and antagonistic responses of herbicide combinations”, Weeds 15, p. 22 ff., the value E, which is expected if the activity of the individual active compounds is only additive, was calculated. E=X+Y−(X·Y/100)

APESV = format: in vivo, Apera spica-venti; parameters: key to herbicidal activity against APESV found: rating on a scale from 0 to 100; conditions: post emergence
Protocol: as §1, §2, §3, §4, §5, §6, §7

GALAP = format: in vivo, Galium aparine; parameters: key to herbicidal activity against GALAP found: rating on a scale from 0 to 100; conditions: post emergence
Protocol: as §1, §2, §3, §4, §5, §6, §7

ABUTH = format: in vivo, Abutilon theophrast; parameters: key to herbicidal activity against ABUTH found: rating on a scale from 0 to 100; conditions: post emergence
Protocol: as §1, §2, §3, §4, §5, §6, §7

ERICA = format: in vivo, Conyza canadensis; parameters: key to herbicidal activity against ERICA found: rating on a scale from 0 to 100; conditions: post emergence
Protocol: as §1, §2, §3, §4, §5, §6, §7

ALOMY = format: in vivo, Alopecurus myosuroides; parameters: key to herbicidal activity against ALOMY found: rating on a scale from 0 to 100; conditions: post emergence
Protocol: as §1, §2, §3, §4, §5, §6, §7

IPOHE = format: in vivo, Ipomoea hederacea; parameters: key to herbicidal activity against IPOHE found: rating on a scale from 0 to 100; conditions: post emergence; for herbicidal activity against IPOHE found: g/ha a.i.: I.1 31.25
Protocol: as §1, §2, §3, §4, §5, §6, §7

KCHSC = format: in vivo, Kochia scoparia; parameters: key to herbicidal activity against KCHSC found: rating on a scale from 0 to 100; conditions: post emergence
Protocol: as §1, §2, §3, §4, §5, §6, §7

MATCH = format: in vivo, Matricaria recutita; parameters: key to herbicidal activity against MATCH found: rating on a scale from 0 to 100; conditions: post emergence
Protocol: as §1, §2, §3, §4, §5, §6, §7

CONAR = format: in vivo, Convolvulus arvensis; parameters: key: rating on a scale from 0 to 100; conditions: application rate a.i.: I.1 62.5 g/ha, B.30 (imazamox) 3.75 g/ha, alone or as mixture (composition 1.030)
Protocol: as §1, §2, §3, §4, §5, §6, §7

VIOAR = format: in vivo, Viola arvensis; parameters: key to herbicidal activity against VIOAR found / herbicidal activity against VIOLA found: rating on a scale from 0 to 100; conditions: post emergence
Protocol: as §1, §2, §3, §4, §5, §6, §7

GERDI = format: in vivo, Geranium dissectum; parameters: key to herbicidal activity against GERDI found: rating on a scale from 0 to 100; conditions: post emergence
Protocol: as §1, §2, §3, §4, §5, §6, §7

[1] = g/ha a.i.: I.1 62.5, B.20 4, mixture 62.5+4
[2] = g/ha a.i.: I.1 31.25, B.24 1, mixture 31.25+1
[3] = g/ha a.i.: I.1 31.25, B.24 2, mixture 31.25+2
[4] = g/ha a.i.: I.1 125, B.24 2, mixture 125+2
[5] = application rate a.i.: I.1 62.5 g/ha, B.30 (imazamox) 3.75 g/ha, alone or as mixture (composition 1.030)
[6] = g/ha a.i.: I.1 31.25, B.52 2.5, mixture 31.25+2.5
[7] = g/ha a.i.: I.1 62.5, B.52 2.5, mixture 62.5+2.5
[8] = g/ha a.i.: I.1 125, B.52 2.5, mixture 125+2.5
[9] = g/ha a.i.: I.1 31.25, B.52 5, mixture 31.25+5
[10] = applied alone at 31.25 g/ha a.i.
[11] = applied alone at 62.5 g/ha a.i.

Compound: CCSC(C)CC1CC(=O)C(/C(CC)=N/OC/C=C/Cl)=C(O)C1 (stereo not drawn) [B.1, clethodim]
- herbicidal activity against POLCO found (POLCO; applied alone at 6 g/ha a.i.): 0
- herbicidal activity against APESV found (APESV; applied alone at 6 g/ha a.i.): 75
- herbicidal activity against GALAP found (GALAP; applied alone at 12 g/ha a.i.): 0
- herbicidal activity against ABUTH found (ABUTH; applied alone at 6 g/ha a.i.): 0
- herbicidal activity against ABUTH found (ABUTH; applied alone at 12 g/ha a.i.): 25
- herbicidal activity against ERICA found (ERICA; applied alone at 12 g/ha a.i.): 0

Compound: CCCC(=NOCC(C)Oc1ccc(Cl)cc1)C1=C(O)CC(C2CCCSC2)CC1=O (stereo not drawn) [B.9, profoxydim]
- herbicidal activity against POLCO found (POLCO; applied alone at 12 g/ha a.i.): 0
- herbicidal activity against ALOMY found (ALOMY; applied alone at 12 g/ha a.i.): 25
- herbicidal activity against APESV found (APESV; applied alone at 6 g/ha a.i.): 15
- herbicidal activity against APESV found (APESV; applied alone at 12 g/ha a.i.): 55
- herbicidal activity against ABUTH found (ABUTH; applied alone at 6 g/ha a.i.): 0
- herbicidal activity against ABUTH found (ABUTH; applied alone at 12 g/ha a.i.): 40

Compound: COc1cc(OC)nc(Oc2cccc(Oc3nc(OC)cc(OC)n3)c2C(=O)O)n1 [B.20, bispyribac-sodium]
- herbicidal activity against ALOMY found (ALOMY; [1]): 55
- herbicidal activity against ALOMY found (ALOMY; g/ha a.i.: I.1 125, B.20 2, mixture 125+2): 30
- herbicidal activity against ALOMY found (ALOMY; g/ha a.i.: I.1 125, B.20 4, mixture 125+4): 55
- herbicidal activity against APESV found (APESV; [1]): 60
- herbicidal activity against ABUTH found (ABUTH; g/ha a.i.: I.1 31.25, B.20 2, mixture 31.25+2): 35
- herbicidal activity against ABUTH found (ABUTH; g/ha a.i.: I.1 31.25, B.20 4, mixture 31.25+4): 65
- herbicidal activity against IPOHE found (IPOHE; B.20 2, mixture 31.25+2): 30

Compound: COc1cc(OC)nc(NC(=O)NS(=O)(=O)Nc2ccccc2C(=O)C2CC2)n1 [B.24, cyclosulfamuron]
- herbicidal activity against KCHSC found (KCHSC; [2]): 45
- herbicidal activity against KCHSC found (KCHSC; [3]): 45
- herbicidal activity against ALOMY found (ALOMY; g/ha a.i.: I.1 125, B.24 1, mixture 125+1): 25
- herbicidal activity against ALOMY found (ALOMY; [4]): 35
- herbicidal activity against APESV found (APESV; [2]): 0
- herbicidal activity against ABUTH found (ABUTH; [3]): 85
- herbicidal activity against IPOHE found (IPOHE; B.24 1, mixture 31.25+1): 75
- herbicidal activity against MATCH found (MATCH; [3]): 65
- herbicidal activity against MATCH found (MATCH; [4]): 65

Compound: COCc1cnc(C2=NC(C)(C(C)C)C(=O)N2)c(C(=O)O)c1 (stereo not drawn) [B.30, imazamox]
- herbicidal activity against CONAR found (CONAR): 85
- herbicidal activity against VIOAR found (VIOAR; [5]): 45
- herbicidal activity against GERDI found (GERDI; [5]): 90

Compound: COc1cnc(OC)n2nc(NS(=O)(=O)c3c(OCC(F)F)cccc3C(F)(F)F)nc12 [B.52, penoxsulam]
- herbicidal activity against ALOMY found (ALOMY; [6]): 55
- herbicidal activity against ALOMY found (ALOMY; [7]): 55
- herbicidal activity against ALOMY found (ALOMY; [8]): 55
- herbicidal activity against APESV found (APESV; [7]): 55
- herbicidal activity against APESV found (APESV; [8]): 55
- herbicidal activity against VIOAR found (VIOAR; [7]): 0
- herbicidal activity against VIOAR found (VIOAR; [8]): 0
- herbicidal activity against VIOAR found (VIOAR; g/ha a.i.: I.1 125, B.52 5, mixture 125+5): 60
- herbicidal activity against ABUTH found (ABUTH; [6]): 85
- herbicidal activity against ABUTH found (ABUTH; [9]): 90
- herbicidal activity against ABUTH found (ABUTH; [7]): 85
- herbicidal activity against GERDI found (GERDI; [6]): 80
- herbicidal activity against GERDI found (GERDI; [7]): 80
- herbicidal activity against GERDI found (GERDI; [8]): 80
- herbicidal activity against ERICA found (ERICA; [6]): 90
- herbicidal activity against ERICA found (ERICA; [9]): 90
- herbicidal activity against ERICA found (ERICA; [7]): 90
- herbicidal activity against ERICA found (ERICA; g/ha a.i.: I.1 62.5, B.52 5, mixture 62.5+5): 90

Compound: CC1(C)CON(Cc2ccccc2Cl)C1=O [B.97, clomazone]
- pest or weed control at 375 g/ha (ALOMY; Alopecurus myosuroides, post-emergence, 480 h, B.97 alone 375 g/ha a.i., read-out: herbicidal activity against ALOMY found): 45%
- pest or weed control at 750 g/ha (ALOMY; Alopecurus myosuroides, post-emergence, 480 h, B.97 alone 750 g/ha a.i., read-out: herbicidal activity against ALOMY found): 60%
- pest or weed control at 375 g/ha (VIOAR; Viola arvensis, post-emergence, B.97 alone 375 g/ha a.i., read-out: herbicidal activity against VIOAR found): 85%
- pest or weed control at 750 g/ha (IPOHE; Ipomoea hederacea, post-emergence, 480 h, B.97 alone 750 g/ha a.i., read-out: herbicidal activity against IPOHE found): 45%
- pest or weed control at 375 g/ha (ERICA; Erigeron canadensis, post-emergence, 480 h, B.97 alone 375 g/ha a.i., read-out: herbicidal activity against ERICA found): 50%
- pest or weed control at 750 g/ha (ERICA; Erigeron canadensis, post-emergence, 480 h, B.97 alone 750 g/ha a.i., read-out: herbicidal activity against ERICA found): 65%

Compound: O=C(O)COc1ccc(Cl)cc1Cl [B.140, 2,4-D]
- herbicidal activity against POLCO found (POLCO; [10]): 65
- herbicidal activity against POLCO found (POLCO; [11]): 75
- herbicidal activity against ALOMY found (ALOMY; [10]): 0
- herbicidal activity against ALOMY found (ALOMY; [11]): 0
- herbicidal activity against GALAP found (GALAP; [10]): 0
- herbicidal activity against GALAP found (GALAP; [11]): 0
- herbicidal activity against VIOAR found (VIOAR; [10]): 60
- herbicidal activity against VIOAR found (VIOAR; [11]): 65
- herbicidal activity against ABUTH found (ABUTH; [10]): 35
- herbicidal activity against ABUTH found (ABUTH; [11]): 85
- herbicidal activity against ERICA found (ERICA; [10]): 70
- herbicidal activity against ERICA found (ERICA; [11]): 80
- herbicidal activity against MATCH found (MATCH; [10]): 0

Compound: CCC/C(=N\OCC)C1=C(O)CC(C2CCCSC2)CC1=O (stereo not drawn) [cycloxidim]
- herbicidal activity against APESV found (APESV; single active, 5 g/ha a.i.): 30
- herbicidal activity against GALAP found (GALAP; single active, 5 g/ha a.i.): 25
- herbicidal activity against VIOAR found (VIOAR; single active, 2.5 g/ha a.i.): 0
- herbicidal activity against GERDI found (GERDI; single active, 2.5 g/ha a.i.): 0
- herbicidal activity against GERDI found (GERDI; single active, 5 g/ha a.i.): 20
- herbicidal activity against MATCH found (MATCH; single active, 5 g/ha a.i.): 65

Compound: CC(C)=NOCCOC(=O)[C@@H](C)Oc1ccc(Oc2cnc3cc(Cl)ccc3n2)cc1 [propaquizafop]
- herbicidal activity against POLCO found (POLCO; applied alone at 5 g/ha a.i.): 0
- herbicidal activity against POLCO found (POLCO; applied alone at 10 g/ha a.i.): 0
- herbicidal activity against KCHSC found (KCHSC; applied alone at 5 g/ha a.i.): 0
- herbicidal activity against KCHSC found (KCHSC; applied alone at 10 g/ha a.i.): 10
- herbicidal activity against ALOMY found (ALOMY; applied alone at 5 g/ha a.i.): 55
- herbicidal activity against ALOMY found (ALOMY; applied alone at 10 g/ha a.i.): 65
- herbicidal activity against APESV found (APESV; applied alone at 5 g/ha a.i.): 65
- herbicidal activity against GALAP found (GALAP; applied alone at 5 g/ha a.i.): 0
- herbicidal activity against GALAP found (GALAP; applied alone at 10 g/ha a.i.): 10
- herbicidal activity against ABUTH found (ABUTH; applied alone at 10 g/ha a.i.): 30
- herbicidal activity against ERICA found (ERICA; applied alone at 5 g/ha a.i.): 0

Compound: COc1nn(C(=O)NS(=O)(=O)c2c(C(=O)O)csc2C)c(=O)n1C [thiencarbazone]
- herbicidal activity against APESV found (APESV; applied alone at 0.5 g/ha a.i.): 25
- herbicidal activity against ERICA found (ERICA; applied alone at 0.5 g/ha a.i.): 85
